Results: US20230255219A1, “SLOW RELEASE COMPOSITE ACTIVE FILMS/PACKAGING TO REDUCE FOODBORNE PATHOGENS AND IMPROVE SHELF LIFE OF RAW AND READY TO EAT FOODS” (The Penn State Research Foundation, priority 2019, published 2023)

How the values were obtained:
STEC cocktail [1] = type: cell-based
Salmonella spp. cocktail [2] = type: cell-based
[3] = test system: L. monocytogenes cocktail; type: cell-based, Listeria monocytogenes
[4] = test system: L. monocytogenes cocktail; experiment: Minimum bactericidal concentration (MBC), plating of wells on selective media; type: cell-based, Listeria monocytogenes
Protocol: (§1) A resazurin indicator-based, 96-well microplate dilution method (Elshikh et al., 2016) was used for in vitro determination of MIC and MBC of LAE, nisin and thymol against different foodborne pathogens. Overnight cultures were grown in TSB (37° C.) and a cocktail of STEC, Salmonella spp., L. monocytogenes and S. aureus was prepared by mixing equal volumes of the three corresponding strains to obtain approximately 8 log10 CFU/mL of the pathogens. Bacterial cells were washed by centrifugation at 8000 rpm/10 minutes, and cell pellets were re-suspended in the same volume of sterile Mueller Hinton Broth (MHB; Difco).
(§2) FIG. 1 illustrates the resazurin indicator-based, 96-well microplate dilution method for MIC determination of different antimicrobials against bacterial cocktails. A 100,000 IU/mL concentration of nisin (VWR) was dissolved in HCl 0.02N; 10% thymol (VWR) was prepared in concentrated ethanol; and 10% LAE (MB) was prepared in sterile distilled water. All antimicrobials were sterilized by filtration through a 0.22 μm filter (Pall; Ann Arbor, Mich.).). Each antimicrobial was diluted in sterile MHB to obtain a final concentration of 50,000 IU/mL of nisin, 5% thymol, and 5% LAE. Using a multi-channel pipette (Eppendorf; Haoppauge, N.Y.), one hundred μL of each antimicrobial in MHB was dispensed into a row in a 96-well microplate. Subsequent serial dilutions of the antimicrobials were made in MHB using the multi-channel pipette by transferring and mixing 50 μL of each compound to obtain antimicrobial concentrations of nisin (50,000-390.6 IU/mL), thymol (5-0.039%) and LAE (5-0.039%). Bacterial cocktails were diluted 1:100 in a sterile MHB to reach a concentration of approximately 6 log10 CFU/mL, with 50 μL of each cocktail added to the respective well. […]
(§3) The MBC was determined by directly inoculating the content of wells with concentrations higher than the MIC value on selective growth media. […] The MBC value was determined as the lowest concentration when there were no bacterial colonies observed (Elshikh et al., 2016).

[5] = test system: all tested bacterial pathogens (STEC, Salmonella spp., L. monocytogenes, S. aureus); type: cell-based
S. aureus cocktail [6] = experiment: Minimum bactericidal concentration (MBC), plating of wells on selective media; type: cell-based, Staphylococcus aureus
Protocol: as §1, §2, §3

Salmonella spp. cocktail [7] = experiment: as above; type: cell-based
Protocol: as §1, §2, §3

S. aureus cocktail [8] = type: cell-based, Staphylococcus aureus
[9] = cited from earlier work
STEC cocktail [10] = type: cell-based; remark: listed apart in the source

## CCCCCCCCCCCC(=O)N[C@@H](CCCN=C(N)N)C(=O)OCC [LAE, lauric arginate]
STEC cocktail [1]; 24 h at 37° C.
  MIC, LAE: 0.078 % (V/V)
Salmonella spp. cocktail [2]; 24 h at 37° C.
  MIC, LAE: 0.078 % (V/V)
[3]; 24 h at 37° C.
  MIC, LAE: 0.078 % (V/V)
[4]
  MBC, LAE: 0.313 % (V/V)
[5]
  concentration of LAE that inhibited all tested bacterial pathogens: 0.078%
S. aureus cocktail [6]
  MBC, LAE: 0.313 % (V/V)
Salmonella spp. cocktail [7]
  MBC, LAE: 0.625 % (V/V)
S. aureus cocktail [8]; 24 h at 37° C.
  MIC, LAE: 0.078 % (V/V)
[9]
  metabolism of LAE in the human body: rapidly metabolized in the human body to lauric acid and arginine

## Cc1ccc(C(C)C)c(O)c1 [Thymol, thymol]
STEC cocktail [1]
  MIC, Thymol: 1.25 % (W/V)
Salmonella spp. cocktail [2]
  MIC, Thymol: 0.625 % (W/V)
[3]
  MIC, Thymol: 0.625 % (W/V)
[4]
  MBC, Thymol: 1.25 % (W/V)
S. aureus cocktail [6]
  MBC, Thymol: 1.25 % (W/V)
Salmonella spp. cocktail [7]
  MBC, Thymol: 2.5 % (W/V)
S. aureus cocktail [8]
  MIC, Thymol: 0.156 % (W/V)
STEC cocktail [10]
  MBC, Thymol: 2.5 % (W/V)

## nisin
STEC cocktail [1]; 24 h at 37° C.
  MIC, Nisin: Nil (key: Nil indicates there was no growth inhibition, nor killing effect at ≤ 50,000 IU/mL)
Salmonella spp. cocktail [2]; 24 h at 37° C.
  MIC, Nisin: Nil (key: Nil indicates there was no growth inhibition, nor killing effect at ≤ 50,000 IU/mL)
[3]; 24 h at 37° C.
  MIC, Nisin: Nil (key: Nil indicates there was no growth inhibition, nor killing effect at ≤ 50,000 IU/mL)
[4]
  MBC, Nisin: Nil (Nil indicates there was no growth inhibition, nor killing effect at ≤ 50,000 IU/mL)
[5]
  antibacterial activity of nisin in MIC and MBC experiments: very poor antibacterial activity
S. aureus cocktail [6]
  MBC, Nisin: Nil (Nil indicates there was no growth inhibition, nor killing effect at ≤ 50,000 IU/mL)
Salmonella spp. cocktail [7]
  MBC, Nisin: Nil (Nil indicates there was no growth inhibition, nor killing effect at ≤ 50,000 IU/mL)
S. aureus cocktail [8]; 24 h at 37° C.
  MIC, Nisin: Nil (key: Nil indicates there was no growth inhibition, nor killing effect at ≤ 50,000 IU/mL)
STEC cocktail [10]
  MBC, Nisin: Nil (key: Nil indicates there was no growth inhibition, nor killing effect at ≤ 50,000 IU/mL)
